Starred links: 1 amine or outer side, 2 acyl side, 3 side chain; linkers in the order of their positions; H or OH if unused. Non-standard residues stand in square brackets, D forms with d. Residues, ends and D or L forms follow the SMILES beside them. No end group written: not given here. Phe(2-(3-thienyl)) = O=C([C@H](Cc1ccccc1-c1ccsc1)N[*:1])[*:2]; Phe(2-Ph) = N[C@@H](Cc1ccccc1-c1ccccc1)C(=O)O; Dmt = Cc1cc(O)cc(C)c1C[C@H](N)C(=O)O
B1: Dmt-D-Ala-Phe(2-(3-thienyl))-Gly-NH2 (peptide)
peptide: [Dmt][dA][Phe(2-(3-thienyl))]G-NH2
modifications: N-terminus assumed
SMILES: Cc1cc(O)cc(C)c1C[C@H](N)C(=O)N[C@H](C)C(=O)N[C@@H](Cc1ccccc1-c1ccsc1)C(=O)NCC(N)=O
B2: Dmt-D-Ala-Phe-Gly-NH2 (peptide)
peptide: [Dmt][dA]FG-NH2
modifications: N-terminus assumed
SMILES: Cc1cc(O)cc(C)c1C[C@H](N)C(=O)N[C@H](C)C(=O)N[C@@H](Cc1ccccc1)C(=O)NCC(N)=O

What was measured:
rats = assay: Tail-flick test on rats after intrathecal administration; type: in vivo, rat
μ opioid receptor (MOP) = μ opioid receptor (MOP) (Homo sapiens, UniProt P35372); type: binding; conditions: for Selectivity IC50δ/IC50μ: ratio DOP IC50 / MOP IC50
δ opioid receptor (DOP) = δ opioid receptor (DOP) (Homo sapiens, UniProt P41143); type: binding
[1] = tested on: guinea pig ileum (GPI), MOP; conditions: read-out: IC50 (GPI); agonist potency
MOP = MOP (Homo sapiens, UniProt P35372); assay: EPAC cAMP BRET-based biosensor assay, MOP; type: cell-based
DOP = DOP (Homo sapiens, UniProt P41143); assay: EPAC cAMP BRET-based biosensor assay, DOP; type: cell-based
δ opioid receptor [2] = target: δ opioid receptor (UniProt P41143)
μ opioid receptor [3] = target: μ opioid receptor (UniProt P35372)
μ opioid receptor [4] = target: μ opioid receptor (UniProt P35372); remark: listed apart in the source
δ opioid receptor [5] = target: δ opioid receptor (UniProt P41143); assay: radioligand binding
μ opioid receptor [6] = target: μ opioid receptor (UniProt P35372); assay: radioligand binding
δ opioid receptor [7] = target: δ opioid receptor (UniProt P41143); remark: listed apart in the source

Chain of MOP (P35372 whole entry): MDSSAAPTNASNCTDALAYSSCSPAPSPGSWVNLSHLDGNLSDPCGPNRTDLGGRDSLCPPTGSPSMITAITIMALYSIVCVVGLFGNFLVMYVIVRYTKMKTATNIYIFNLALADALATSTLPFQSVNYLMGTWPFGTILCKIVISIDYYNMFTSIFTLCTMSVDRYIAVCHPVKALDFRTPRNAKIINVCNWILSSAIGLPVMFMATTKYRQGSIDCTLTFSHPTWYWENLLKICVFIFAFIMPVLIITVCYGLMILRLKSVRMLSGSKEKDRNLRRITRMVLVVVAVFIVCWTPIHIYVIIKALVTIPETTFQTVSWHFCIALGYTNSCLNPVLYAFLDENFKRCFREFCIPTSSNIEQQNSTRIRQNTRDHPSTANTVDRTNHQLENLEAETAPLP
Chain of μ opioid receptor (MOP) (P35372 whole entry, species assumed): as the sequence (P35372 whole entry) above

Row | Molecule | Duration of analgesic action on thermal nociception (rats) | IC50 (μ opioid receptor (MOP)) [nM] | Selectivity IC50δ/IC50μ (μ opioid receptor (MOP)) | IC50 (δ opioid receptor (DOP)) [nM] | IC50 [1] [nM] | EC50 (MOP) [nM] | EC50 (DOP) [nM] | other results
1 | Cc1cc(O)cc(C)c1C[C@H](N)C(=O)N[C@H](C)C(=O)N[C@@H](Cc1ccccc1-c1ccccc1)C(=O)NCC(N)=O [Compound 15, Dmt-D-Ala-Phe(2-phenyl)-Gly-NH2] (H-[Dmt][dA][Phe(2-Ph)]G-NH2) | exceeding 60 min | – | – | – | – | – | – | –
2 | Cc1cc(O)cc(C)c1C[C@H](N)C(=O)N[C@H](C)C(=O)N[C@@H](Cc1ccccc1)C(=O)NCC(N)=O [Compound 20, Dmt-D-Ala-Phe-Gly-NH2] (H-[Dmt][dA]FG-NH2) | exceeding 60 min | 0.14 ± 0.05 | 161 | 22.6 ± 4.6 | 1.5 ± 0.12 | 0.012 ± 0.0007 | 2.4 ± 1 | Fold increase in MOP affinity compared to DAMGO (μ opioid receptor (MOP)): 10 fold; Effectiveness in reversing nociceptive behavior relative to DAMGO (rats): 10 times
3 | Cc1cc(O)cc(C)c1C[C@H](N)C(=O)N[C@H](CCCNC(=N)N)C(=O)N[C@@H](Cc1ccccc1)C(=O)NCC(N)=O [Compound 19, Dmt-D-Arg-Phe-Gly-NH2] (H-[Dmt][dR]FG-NH2) | exceeding 60 min | 0.1 ± 0.06 | 140 | 14 ± 2.7 | 2.26 ± 0.37 | 0.008 ± 0.002 | 1.13 ± 0.2 | Fold increase in MOP affinity compared to DAMGO (μ opioid receptor (MOP)): 10 fold; Effectiveness in reversing nociceptive behavior relative to DAMGO (rats): 10 times
4 | Cc1cc(O)cc(C)c1C[C@H](N)C(=O)N[C@H](CCCNC(=N)N)C(=O)N[C@@H](Cc1ccccc1-c1ccc(F)cc1)C(=O)NCC(N)=O [Compound 12, Dmt-D-Arg-Phe(2-(4-F-phenyl))-Gly-NH2] | – | 0.47 ± 0.06 | 925 | 435 ± 26 | 0.801 ± 0.086 | – | – | –
5 | Cc1cc(O)cc(C)c1C[C@H](N)C(=O)N[C@H](CCCNC(=N)N)C(=O)N[C@@H](Cc1ccccc1-c1ccc(C(F)(F)F)cc1)C(=O)NCC(N)=O [Compound 11, Dmt-D-Arg-Phe(2-(4-CF3-phenyl))-Gly-NH2] | – | 0.07 ± 0.09 | 560 | 39.2 ± 17 | 1.26 ± 0.17 | 0.12 ± 0.05 | 26.8 ± 6 | –
6 | CC(C)=Cc1ccccc1C[C@H](NC(=O)[C@@H](CCCNC(=N)N)NC(=O)[C@@H](N)Cc1c(C)cc(O)cc1C)C(=O)NCC(N)=O [Compound 14] | exceeding 60 min | – | – | – | – | – | – | –
7 | COc1ccc(-c2ccccc2C[C@H](NC(=O)[C@@H](CCCNC(=N)N)NC(=O)[C@@H](N)Cc2c(C)cc(O)cc2C)C(=O)NCC(N)=O)cc1 [Compound 10, Dmt-D-Arg-Phe(2-(4-MeO-phenyl))-Gly-NH2] | – | 0.47 ± 0.24 | 149 | 70.2 ± 27.2 | 0.901 ± 0.224 | – | – | –
8 | C=Cc1ccccc1C[C@H](NC(=O)[C@@H](C)N(C)C(=O)[C@@H](N)Cc1c(C)cc(O)cc1C)C(=O)NCC(N)=O [Compound 18, Dmt-N-Me-D-Ala-Phe(2-vinyl)-Gly-NH2] | – | 0.36 ± 0.09 | 165 | 59.4 ± 0.8 | 0.641 ± 0.045 | 0.003 ± 0.004 | 4.4 ± 2 | –
9 | B1 | – | – | – | – | – | – | – | IC50 in the mouse vas deferens (MVD) assay (δ opioid receptor [2]): 2.16 nM; IC50 in the guinea pig ileum (GPI) assay (μ opioid receptor [3]): 1.27 nM; EPAC MOP EC50 (EPAC cAMP BRET-based biosensor assay) (μ opioid receptor [4]): 34.8 nM; IC50 (δ opioid receptor [5]): 687 nM; IC50 (μ opioid receptor [6]): 240 nM
10 | B2 | – | – | – | – | – | – | – | IC50 in the mouse vas deferens (MVD) assay (δ opioid receptor [2]): 1.15 nM; IC50 in the guinea pig ileum (GPI) assay (μ opioid receptor [3]): 1.5 nM; EPAC DOP EC50 (EPAC cAMP BRET-based biosensor assay) (δ opioid receptor [7]): 2.4 nM; EPAC MOP EC50 (EPAC cAMP BRET-based biosensor assay) (μ opioid receptor [4]): 0.012 nM
